Holding throughout (format): cell-based
Assay [1] relates to Chikungunya virus (CHIKV). The assay is described as follows: microbe, parasite or virus in culture. Conditions: Chikungunya virus, Vero, 48 h, read-out: Percent viral inhibition CHKV.
The next assay relates to dengue virus (DENV). The assay is described as follows: microbe, parasite or virus in culture. Conditions: Dengue virus, Vero, 120 h, read-out: Percent viral inhibition DENY.
In another assay the test system is Marburg virus (MARV). The assay is described as follows: organism not typed. The following applies: Vero, 72 h, read-out: Percent viral inhibition MARV.

Structures are written as SMILES.

As usually defined, the inhibition is the relative decrease from the control value, in per cent.

For `CN1CCN(c2ncc(Oc3cc(CN4CCC(CCC(=O)O)CC4)cc(-c4cc(Cl)cc(Cl)c4)n3)cn2)CC1` [Example 130, 3-(1-((2-(3,5-dichlorophenyl)-6-((2-(4-methylpiperazin-1-yl)pyrimidin-5-yl)oxy)pyridin-4-yl)methyl)piperidin-4-yl)propanoic acid], the values for the inhibition at 1 µM (in assay [1]; with dengue virus (DENV); in the assay on Marburg virus (MARV)) were 28.4%, 33% and 33.3%, respectively.

Regarding `CC(=O)NCC1CCN(Cc2cc(Oc3cnc(N4CCN(CCS(N)(=O)=O)CC4)nc3)nc(-c3cc(Cl)cc(Cl)c3)c2)CC1` [Example 286, N-((1-((2-(3,5-dichlorophenyl)-6-((2-(4-(2-sulfamoylethyl)piperazin-1-yl)pyrimidin-5-yl)oxy)pyridin-4-yl)methyl)piperidin-4-yl)methyl)acetamide], the inhibition at 1 µM stood at 0% in assay [1], 0% in the assay on dengue virus (DENV) and 19.2% in the assay on Marburg virus (MARV).

For the compound `NC(=O)OCCN1CCN(Cc2cc(Oc3ccc(N4CCN(CCC(=O)O)CC4)nc3)nc(-c3cc(Cl)cc(Cl)c3)c2)CC1` [Example 55, 3-(4-(5-((4-((4-(2-(carbamoyloxy)ethyl)piperazin-1-yl)methyl)-6-(3,5-dichlorophenyl)pyridin-2-yl)oxy)pyridin-2-yl)piperazin-1-yl)propanoic acid], the inhibition at 1 µM is 16.8% in assay [1], 3.58% in the assay with dengue virus (DENV) and 40.2% in the assay on Marburg virus (MARV).

Regarding `CC(=O)NCC1CCN(Cc2cc(Oc3cnc(N4CCN(C(C)CC(=O)O)CC4)nc3)nc(-c3cc(Cl)cc(Cl)c3)c2)CC1` (stereo not drawn) [Example 282, 3-(4-(5-((4-((4-(acetamidomethyl)piperidin-1-yl)methyl)-6-(3,5-dichlorophenyl)pyridin-2-yl)oxy)pyrimidin-2-yl)piperazin-1-yl)butanoic acid], the results for the inhibition at 1 µM (in assay [1]; with dengue virus (DENV); in the assay with Marburg virus (MARV)) were 8.2%, 21.8% and 63.7%, respectively.

As to `CC(=O)NCC1CCN(Cc2cc(Oc3ccc(N4CCN(CCC(=O)O)[C@@H](C)C4)nc3)nc(-c3cc(Cl)cc(Cl)c3)c2)CC1` [Example 186], the inhibition at 1 µM in assay [1] stood at 19.9%; with dengue virus (DENV), 53.9%; in the assay on Marburg virus (MARV) it was 30.6%.

For `CNC(=O)OCCN1CCN(c2ncc(Oc3cc(CN4CCC(CC(=O)O)CC4)cc(-c4cc(Cl)cc(Cl)c4)n3)cn2)CC1` [Example 241, 2-(1-((2-(3,5-dichlorophenyl)-6-((2-(4-(2-((methylcarbamoyl)oxy)ethyl)piperazin-1-yl)pyrimidin-5-yl)oxy)pyridin-4-yl)methyl)piperidin-4-yl)acetic acid], the inhibition at 1 µM in assay [1] amounted to 32.4%; with dengue virus (DENV), 43.4%; with Marburg virus (MARV), 73.1%.

As for `CC(=O)NCC1CCN(Cc2cc(Oc3cnc(N4CCN(CC(O)CF)CC4)nc3)nc(-c3cc(Cl)cc(Cl)c3)c2)CC1` (stereo not drawn) [Example 304, N-((1-((2-(3,5-dichlorophenyl)-6-((2-(4-(3-fluoro-2-hydroxypropyl)piperazin-1-yl)pyrimidin-5-yl)oxy)pyridin-4-yl)methyl)piperidin-4-yl)methyl)acetamide], the inhibition at 1 µM in assay [1] was 0%; with dengue virus (DENV), 41.8%; with Marburg virus (MARV), 12.4%.

For the compound `COC(=O)CCN1CCN(c2ccc(Oc3cc(CN4CCC(CNC(C)=O)CC4)cc(-c4cc(Cl)cc(Cl)c4)n3)cn2)CC1` [Example 385, methyl3-(4-(5-((4-((4-(acetamidomethyl)piperidin-1-yl)methyl)-6-(3,5-dichlorophenyl)pyridin-2-yl)oxy)pyridin-2-yl)piperazin-1-yl)propanoate], the inhibition at 1 µM amounted to 14.9% in assay [1], 48.5% in the assay on dengue virus (DENV) and 56.7% in the assay on Marburg virus (MARV).

Consider `CN1CCN(c2ncc(Oc3cc(CN4CCC(Cc5nnn[nH]5)CC4)cc(-c4cc(Cl)cc(Cl)c4)n3)cn2)CC1` [Example 72, 5-((4-((4-((1H-tetrazol-5-yl)methyl)piperidin-1-yl)methyl)-6-(3,5-dichlorophenyl)pyridin-2-yl)oxy)-2-(4-methylpiperazin-1-yl)pyrimidine], for which the inhibition at 1 µM in assay [1] was 33.7%; with dengue virus (DENV), 11.2%; with Marburg virus (MARV), 55.8%.

On to `CC(=O)NCC1CCN(Cc2cc(Oc3ccc(N4CCN(CCC(N)=O)CC4)nc3)nc(-c3cc(Cl)cc(Cl)c3)c2)CC1` [Example 13, 3-(4-(5-((4-((4-(acetamidomethyl)piperidin-1-yl)methyl)-6-(3,5-dichlorophenyl)pyridin-2-yl)oxy)pyridin-2-yl)piperazin-1-yl)propanamide], for which the inhibition at 1 µM in assay [1] was determined as 15.9%; with dengue virus (DENV), 26.5%; in the assay on Marburg virus (MARV), 25.4%.

For the compound `O=C(O)CC1CCN(Cc2cc(Oc3cnc(N4CCN(CCO)CC4)nc3)nc(-c3cc(Cl)cc(Cl)c3)c2)CC1` [Example 306, 2-(1-((2-(3,5-dichlorophenyl)-6-((2-(4-(2-hydroxyethyl)piperazin-1-yl)pyrimidin-5-yl)oxy)pyridin-4-yl)methyl)piperidin-4-yl)acetic acid], the inhibition at 1 µM came to 13.6% in assay [1], 7.27% in the assay on dengue virus (DENV) and 51.1% in the assay with Marburg virus (MARV).

Turning to `CS(=O)(=O)CCC1CCN(Cc2cc(Oc3ccc(N4CCN(CCC(=O)O)CC4)nc3)nc(-c3cc(Cl)cc(Cl)c3)c2)CC1` [Example 276, 3-(4-(5-((6-(3,5-dichlorophenyl)-4-((4-(2-(methylsulfonyl)ethyl)piperidin-1-yl)methyl)pyridin-2-yl)oxy)pyridin-2-yl)piperazin-1-yl)propanoic acid], the results for the inhibition at 1 µM (in assay [1]; in the assay on dengue virus (DENV); in the assay with Marburg virus (MARV)) were 31.8%, 27.3% and 51.8%, respectively.

For `CN1CCCN(c2ncc(Oc3cc(CN4CCC(CC(=O)O)CC4)cc(-c4cc(F)cc(Cl)c4)n3)cn2)CC1` [Example 374, 2-(1-((2-(3-chloro-5-fluorophenyl)-6-((2-(4-methyl-1,4-diazepan-1-yl)pyrimidin-5-yl)oxy)pyridin-4-yl)methyl)piperidin-4-yl)acetic acid], the inhibition at 1 µM in assay [1] was determined as 17.6%; with dengue virus (DENV), 38.5%; in the assay with Marburg virus (MARV), 48.6%.

For the compound `CC(=O)NCC1CCN(Cc2cc(Oc3ccc(N4CCC5(CCNC5)C4)nc3)nc(-c3cc(Cl)cc(Cl)c3)c2)CC1` (stereo not drawn) [Example 199, N-((1-((2-((6-(2,7-diazaspiro[4.4]-nonan2-yl)pyridin-3-yl)oxy)-6-(3,5-dichlorophenyl)pyridin-4-yl)methyl)piperidin-4-yl)methyl)acetamide], the results for the inhibition at 1 µM (in assay [1]; in the assay with dengue virus (DENV); in the assay on Marburg virus (MARV)) were 21.6%, 49% and 18.5%, respectively.

`COC(=O)NCC1CCN(Cc2cc(Oc3cnc(N4CCN(C(C)CCC(=O)O)CC4)nc3)nc(-c3cc(Cl)cc(Cl)c3)c2)CC1` (stereo not drawn) [Example 222, 4-(4-(5-((6-(3,5-dichlorophenyl)-4-((4-(((methoxycarbonyl)amino)methyl)piperidin-1-yl)methyl)pyridin-2-yl)oxy)pyrimidin-2-yl)piperazin-1-yl)pentanoic acid]: the inhibition at 1 µM in assay [1] was 25%; in the assay on dengue virus (DENV), 17.6%; with Marburg virus (MARV) it was 60%.

In the case of `O=C(O)CC1CCN(Cc2cc(Oc3cnc(N4CCN(Cc5cnn[nH]5)CC4)nc3)nc(-c3cc(Cl)cc(Cl)c3)c2)CC1` [Example 387, 2-(1-((2-((2-(4-((1H-l,2,3-triazol-5-yl)methyl)piperazin-1-yl)pyrimidin-5-yl)oxy)-6-(3,5-dichlorophenyl)pyridin-4-yl)methyl)piperidin-4-yl)acetic acid], the inhibition at 1 µM in assay [1] amounted to 36.3%; with dengue virus (DENV) it was 39.9%; with Marburg virus (MARV), 41.4%.

`CN1CCCN(c2ncc(Oc3cc(CN4CCC(OCC(=O)O)CC4)cc(-c4cc(Cl)cc(Cl)c4)n3)cn2)CC1` [Example 140, 2-((1-((2-(3,5-dichlorophenyl)-6-((2-(4-methyl-1,4-diazepan-1-yl)pyrimidin-5-yl)oxy)pyridin-4-yl)methyl)piperidin-4-yl)oxy)acetic acid]: the values for the inhibition at 1 µM (in assay [1]; with dengue virus (DENV); with Marburg virus (MARV)) were 32.7%, 14.1% and 51.5%, respectively.

For the compound `CC(=O)NCC1CCN(Cc2cc(Oc3cnc(N4CCN(CCCS(N)(=O)=O)CC4)nc3)nc(-c3cc(Cl)cc(Cl)c3)c2)CC1` [Example 253, N-((1-((2-(3,5-dichlorophenyl)-6-((2-(4-(3-sulfamoylpropyl)piperazin-1-yl)pyrimidin-5-yl)oxy)pyridin-4-yl)methyl)piperidin-4-yl)methyl)acetamide], the inhibition at 1 µM amounted to 36.1% in assay [1], 27.3% in the assay on dengue virus (DENV) and 52.1% in the assay with Marburg virus (MARV).

With `CC(=O)NCC1CCN(Cc2cc(Oc3ccc(N4CCN([C@H]5C[C@@H](NS(C)(=O)=O)C5)CC4)nc3)nc(-c3cc(Cl)cc(Cl)c3)c2)CC1` [Example 27, N-((1-((2-(3,5-dichlorophenyl)-6-((6-(4-((cis)-3-(methylsulfonamido)cyclobutyl)piperazin-1-yl)pyridin-3-yl)oxy)pyridin-4-yl)methyl)piperidin-4-yl)methyl)acetamide], the results for the inhibition at 1 µM (in assay [1]; with dengue virus (DENV); in the assay on Marburg virus (MARV)) were 26.8%, 51.1% and 50.3%, respectively.

Turning to `O=C(O)CC1CCN(Cc2cc(Oc3ccc(N4CCCNCC4)nc3)nc(-c3cc(Cl)cc(Cl)c3)c2)CC1` [Example 166, 2-(1-((2-((6-(1,4-diazepan-1-yl)pyridin-3-yl)oxy)-6-(3,5-dichlorophenyl)pyridin-4-yl)methyl)piperidin-4-yl) acetic acid], the inhibition at 1 µM in assay [1] is 35.3%; in the assay on dengue virus (DENV), 21.3%; in the assay on Marburg virus (MARV), 45%.

As for `CS(=O)(=O)CC1CCN(Cc2cc(Oc3ccc(N4CCN(CCC(=O)O)CC4)nc3)nc(-c3cc(Cl)cc(Cl)c3)c2)CC1` [Example 39, 3-(4-(5-((6-(3,5-dichlorophenyl)-4-((4-((methylsulfonyl)methyl)piperidin-1-yl)methyl)pyridin-2-yl)oxy)pyridin-2-yl)piperazin-1-yl)propanoic acid], the inhibition at 1 µM in assay [1] amounted to 23.7%; in the assay on dengue virus (DENV) it was 54.7%; in the assay with Marburg virus (MARV), 60.1%.
